Experiments:
[1] = administered orally to patients at about 300-600 mg/day; cited from earlier work
[2] = oral administration to rats; cited from earlier work
β1-35 peptide = biological target: T1, β1-35 peptide (Homo sapiens, UniProt P05067); assay: β-amyloid protein aggregation inhibition by SDS-PAGE (Example 1); type: biochemical; conditions: drug agent 100 µg/ml; β1-35 peptide 2 mg/ml; room temperature; control and methanol solutions aggregated by the 7th day
T1 construct: made in house; host or cells: chemical solid-phase synthesis (Fmoc)
Text: When synthesized β-amyloid protein is subjected to SDS-PAGE, a 3-4 kDa band due to the peptide monomer is observed. However, when the protein begins to aggregate, this monomer band becomes thinner and a smear is observed at the high molecular end (Tomiyama, et al. 1994, J. Biol. Chem. 269, 10205-10208). The inhibitory activity of a drug agent against β-amyloid protein aggregation may be determined by measuring the aggregation period of β-amyloid in admixture with the drug agent based on the decrease in peptide monomer or appearance of smearing observed with SDS-PAGE.
Specifically, 10 µl of solution is taken from a reagent solution containing β-amyloid protein and a drug agent, an equivalent of a sample buffer for electrophoresis (20 mM Tris-HCl buffer, pH 6.8, 40% glycerin, 2% SDS, 2% β-mercaptoethanol) is added thereto, and the mixture is boiled at 100°C for 5 minutes. Next, 10 µl of the solution is placed on a 15-25% polyacrylamide gradient gel for electrophoresis in a Tris-glycine buffered system. After completion of the electrophoresis, the gel is stained with 0.2% Coomassie brilliant blue solution and the amount of peptide monomer (band thickness) and presence of smearing is observed. […]

T1 sequence (P05067 672-706): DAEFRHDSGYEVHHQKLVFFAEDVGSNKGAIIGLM

Row | Structure (SMILES) | maximum blood concentration [1] | LD₅₀ value [2] | reduction in peptide monomer and appearance of smear (β1-35 peptide aggregation) (β1-35 peptide)
1 | CO[C@H]1/C=C/O[C@@]2(C)Oc3c(C)c(O)c4c(O)c(c(/C=N/N5CCN(C)CC5)c(O)c4c3C2=O)NC(=O)/C(C)=C\C=C\[C@H](C)[C@H](O)[C@@H](C)[C@@H](O)[C@@H](C)[C@H](OC(C)=O)[C@@H]1C [rifampicin, Rifampicin] | about 10 µg/ml | 1720 mg/kg | –
2 | COC1C=COC2(C)Oc3c(C)c(O)c4c(O)c(cc(OCC(=O)O)c4c3C2=O)NC(=O)C(C)=CC=CC(C)C(O)C(C)C(O)C(C)C(OC(C)=O)C1C (stereo not shown) [rifamycin B, Rifamycin B] | – | – | no reduction in peptide monomer or smearing was observed up to the 14th day after dissolution
3 | CO[C@H]1/C=C/O[C@@]2(C)Oc3c(C)c(O)c4c(O)c(cc(O)c4c3C2=O)NC(=O)/C(C)=C\C=C\[C@H](C)[C@H](O)[C@@H](C)[C@@H](O)[C@@H](C)[C@H](OC(C)=O)[C@@H]1C [rifamycin SV, Rifamycin SV] | – | – | no reduction in peptide monomer or smearing was observed up to the 14th day after dissolution

— patent publication EP0675126A1, “AMYLOID BETA-PROTEIN AGGLUTINATION AND/OR DEPOSITION INHIBITOR” (TEIJIN LIMITED, priority 1993, dated 1995)
